Read-outs that look alike come from different tables or passages of the source. Where a SMILES comes first, the peptide text is derived from it. [ ]: non-standard residue; d: D form. The star is where a group is joined. X1 = O=C(COc1c(-c2csc(N3CCOCC3)n2)ccc(F)c1F)NCCCCCCN*; X2 = Fc1ccc(-c2csc(N3CCOCC3)n2)c(OCCOCCOCCN*)c1F; Dip = N[C@H](C(=O)O)C(c1ccccc1)c1ccccc1; Chg = N[C@H](C(=O)O)C1CCCCC1; NMeA = CN[C@@H](C)C(=O)O Some results are limits rather than exact numbers.

The record followed here is patent US11787778B2, “Bi-functional compounds and methods for targeted ubiquitination of androgen receptor” (MONTELINO THERAPEUTICS, INC., priority 2019, dated 2023).

This assay concerns 22Rv1. As to the kind of experiment: 22Rv1 cell count decrease. The settings on record: Homo sapiens. The format is cell-based. How it is done: The human prostate cancer cell line, 22Rv1 has been reported to express a high level of AR-V7. […] Standard culture media was RPMI-1640 supplemented with 10% fetal bovine serum. The test compound initially was dissolved in DMSO at 50 mM. This stock solution was then diluted as needed for the indicated concentrations. […]

[1] abbreviates: read-out: 22Rv1 cell count decrease at 10 uM for 48 hours, 22Rv1 cells, 10 uM, read-out: 22Rv1 cell count decrease at 10 uM.

Turning to `CN[C@@H](C)C(=O)N[C@H](C(=O)N1CCC[C@H]1C(=O)N[C@H](C(=O)NCCOCCOCCOc1c(-c2csc(N3CCOCC3)n2)ccc(F)c1F)C(c1ccccc1)c1ccccc1)C1CCCCC1` [Example 24, (S)-1-((S)-2-cyclohexyl-2-((S)-2-(methylamino)propanamido)acetyl)-N-((S)-1-((2-(2-(2-(2,3-difluoro-6-(2-morpholinothiazol-4-yl)phenoxy)ethoxy)ethoxy)ethyl)amino)-1-oxo-3,3-diphenylpropan-2-yl)pyrrolidine-2-carboxamide] (H-[NMeA][Chg]P[Dip]-X2), the inhibition at 10 µM (22Rv1, read-out: 22Rv1 cell count decrease at 10 uM for 48 hours) is above 50%.

Consider `CN[C@@H](C)C(=O)N[C@H](C(=O)N1CCC[C@H]1C(=O)N[C@H](C(=O)NCCCCCCNC(=O)COc1c(-c2csc(N3CCOCC3)n2)ccc(F)c1F)C(c1ccccc1)c1ccccc1)C1CCCCC1` [Example 26, (S)-1-((S)-2-cyclohexyl-2-((S)-2-(methylamino)propanamido)acetyl)-N-((S)-1-((6-(2-(2,3-difluoro-6-(2-morpholinothiazol-4-yl)phenoxy)acetamido)hexyl)amino)-1-oxo-3,3-diphenylpropan-2-yl)pyrrolidine-2-carboxamide] (H-[NMeA][Chg]P[Dip]-X1), for which, under setting [1], the inhibition at 10 µM is above 50%.

Turning to `O=C1CCC(N2C(=O)c3cccc(NCCCCCCNC(=O)c4cn(-c5csc(N6CCOCC6)n5)cn4)c3C2=O)C(=O)N1` (stereo not drawn) [Example 32, N-(6-((2-(2,6-dioxopiperidin-3-yl)-1,3-dioxoisoindolin-4-yl)amino)hexyl)-1-(2-morpholinothiazol-4-yl)-1H-imidazole-4-carboxamide], the inhibition at 10 µM under setting [1] was in the range of 0 to 20%.
